Test results taken from publication PMC4551797 (PLoS ONE, 2015).

How the values were obtained:
C57BL/6 mice = assay: Acute in vivo incretin secretion assay (plasma GLP-1 and PYY AUC); conditions: fasted mice, 3-hour time course
From the text: Plasma was separated by centrifugation, aliquoted, and analyzed for GLP-1 (X-36) amide (Mesoscale Discovery) and total PYY (Millipore). Resulting raw data was used to generate area under the curve analyses (AUCs).

[1] = CEREP mini panel (56 assays: enzymes, receptors, ion channels); conditions: read-out: IC50s for 56 assays in a CEREP mini panel
[2] = Plasma compound levels after oral dosing (LC-MS/MS); conditions: C57BL/6, mouse

CC(=O)N1CCC(C(C)N(C(=O)COc2cccc3sc4nc(C)cn4c23)c2ccc(F)cc2)CC1 (stereo not drawn) [compound 18]
GLP-1 AUC increase over vehicle (C57BL/6 mice; 3 mg/kg oral): 1.2 fold over vehicle | PYY AUC increase over vehicle (C57BL/6 mice; 3 mg/kg oral): 1.1 fold over vehicle | GLP-1 AUC increase over vehicle (C57BL/6 mice; 10 mg/kg oral): 2.0 fold over vehicle | PYY AUC increase over vehicle (C57BL/6 mice; 10 mg/kg oral): 1.5 fold over vehicle | GLP-1 AUC increase over vehicle (C57BL/6 mice; 30 mg/kg oral): 5.7 fold over vehicle | PYY AUC increase over vehicle (C57BL/6 mice; 30 mg/kg oral): 3.1 fold over vehicle | GLP-1 AUC increase over vehicle (C57BL/6 mice; 100 mg/kg oral): 12.1 fold over vehicle | PYY AUC increase over vehicle (C57BL/6 mice; 100 mg/kg oral): 4.9 fold over vehicle | IC50 [1]: > 10 µM | AUC(0-t) ([2]; 3 mg/kg): 0.049 µM·h | Cmax ([2]; 3 mg/kg): 59 nM | AUC(0-t) ([2]; 10 mg/kg): 0.507 µM·h | Cmax ([2]; 10 mg/kg): 348 nM | AUC(0-t) ([2]; 30 mg/kg): 1.52 µM·h | Cmax ([2]; 30 mg/kg): 2510 nM | AUC(0-t) ([2]; 100 mg/kg): 14.3 µM·h | Cmax ([2]; 100 mg/kg): 14800 nM | Tmax ([2]; 100 mg/kg): 15 min
